Data on 17 compounds can be found in patent US20240002401A1, “IMIDAZOTHIAZOLE COMPOUNDS, PHARMACEUTICAL COMPOSITIONS, AND USES THEREOF” (GUANGZHOU HENOVCOM BIOSCIENCE CO., LTD., priority 2020, published 2024).

Each structure is given as a SMILES string. pIC50: −log10 of the molar value.

The target of this assay is ATX (Homo sapiens, UniProt Q13822). Description: Enzyme activity screening in vitro with LPC as substrate (Amplex Red fluorescence). The settings on record: inhibitory activity against ATX. The assay is classed as biochemical. The text has this: Analysis In Vitro: LPC was Used as Substrate for Screening Enzyme Activity
Principle: Lysophosphatidylcholine (LPC) as substrate is hydrolyzed by using the activity of lysoPLD enzyme, to produce lysophosphatidic acid (LPA) and choline, which is oxidized to produce H2O2 under the action of choline oxidase. In presence of horse radish peroxidase (HPR), Amplex Red reagent is reacted with H2O2 in a quantitative chemistry ratio of 1 to 1, to produce strong fluorescence products, which are detected by a fluorescent quantitative test.
20 μl of the above mixed solution 1 was added to each hole of an experiment board, […]. The compounds diluted with DMSO were transferred into an experiment board with Echo550. The reaction buffer solution was used for preparing a mixed solution 2 of […] LPC and 400 μM Amplex Red in a final concentration. 20 μl of the above mixed solution 2 was added to each hole of the experiment board. After addition, the experiment board was shook for 30 seconds on a shaker, and incubated for 30 minutes. Envision was used to read the fluorescence signals with an exciting light at 530 nm and emitted light at 590 nm.
By pIC50 is commonly meant the IC50 on a negative log10 scale, so that one unit is a factor of ten. Regarding `CCc1nc2sc(C3CCN(CC(=O)NCCO)CC3)cn2c1N(CC)c1nc(-c2ccc(F)cc2)c(C#N)s1` [Embodiment 3, 2-(4-(5-((5-cyano-4-(4-fluorophenyl)thiazol-2-yl)(ethyl)amino)-6-ethylimidazo[2,1-b]thiazol-2-yl]piperidin-1-yl)-N-(2-hydroxyethyl)acetamide], the pIC50 is 6.30 to 7.00.
The same measure for `CCc1nc2sc(C3CCN(CC(=O)N(C)CCO)CC3)cn2c1N(CC)c1nc(-c2ccc(F)cc2)c(C#N)s1` [Embodiment 4, 2-(4-(5-((5-cyano-4-(4-fluorophenyl)thiazol-2-yl)(ethyl)amino)-6-ethylimidazo[2,1-b]thiazol-2-yl]piperidin-1-yl)-N-(2-hydroxyethyl)-N-methylacetamide]: 7.00 to 11.00; for `CCc1nc2sc(C3CCN(CC(=O)NC4CC(O)C4)CC3)cn2c1N(CC)c1nc(-c2ccc(F)cc2)c(C#N)s1` (centres unmarked) [Embodiment 5, 2-(4-(5-((5-cyano-4-(4-fluorophenyl)thiazol-2-yl)(ethyl)amino)-6-ethylimidazo[2,1-b]thiazol-2-yl]piperidin-1-yl)-N-(3-hydroxycyclobutyl)acetamide]: 7.00 to 11.00.
Compound `CCc1nc2sc(C3CCN(CC(=O)N4CC(O)C4)CC3)cn2c1N(CC(F)(F)F)c1nc(-c2ccc(F)cc2)c(C#N)s1` [Embodiment 6, 2-((6-ethyl-2-(1-(2-(3-hydroxyazetidin-1-yl)-2-oxoethyl)piperidin-4-yl)imidazo[2,1-b]thiazol-5-yl)(2,2,2,-trifluoroethyl)amino)-4-(4-fluorophenyl)thiazole-5-carbonitrile] showed a pIC50 of 7.00 to 11.00.
As to `CCc1nc2sc(C3CCN(CC(=O)NCC(C)(C)O)CC3)cn2c1N(CC)c1nc(-c2ccc(F)cc2)c(C#N)s1` [Embodiment 8, 2-(4-(5-((5-cyano-4-(4-fluorophenyl)thiazol-2-yl)(ethyl)amino)-6-ethylimidazo[2,1-b]thiazol-2-yl)piperidin-1-yl)-N-(2-hydroxy-2-methylpropyl)acetamide], the pIC50 was 7.00 to 11.00.
On to `CCc1nc2sc(C3CCN(CC(=O)NCC(C)(C)CO)CC3)cn2c1N(CC)c1nc(-c2ccc(F)cc2)c(C#N)s1` [Embodiment 9, 2-(4-(5-((5-cyano-4-(4-fluorophenyl)thiazol-2-yl)(ethyl)amino)-6-ethylimidazo[2,1-b]thiazol-2-yl)piperidin-1-yl)-N-(3-hydroxy-2,2-dimethylpropyl)acetamide], for which the pIC50 is 7.00 to 11.00.
Then `CCc1nc2sc(C3CCN(CC(=O)N(C)CCC#N)CC3)cn2c1N(CC)c1nc(-c2ccc(F)cc2)c(C#N)s1` [Embodiment 10, 2-(4-(5-((5-cyano-4-(4-fluorophenyl)thiazol-2-yl)(ethyl)amino)-6-ethylimidazo[2,1-b]thiazol-2-yl)piperidin-1-yl)-N-(2-cyanoethyl)-N-methylacetamide], with 7.00 to 11.00; and `CCc1nc2sc(C3CCN(CC(=O)NC4(CO)CC4)CC3)cn2c1N(CC)c1nc(-c2ccc(F)cc2)c(C#N)s1` [Embodiment 12, 2-(4-(5-((5-cyano-4-(4-fluorophenyl)thiazol-2-yl)(ethyl)amino)-6-ethylimidazo[2,1-b]thiazol-2-yl)piperidin-1-yl)-N-(1-(hydroxymethyl)cyclopropyl)acetamide], with 7.00 to 11.00.
Then `CCc1nc2sc(C3CCN(CC(=O)NC(C)CO)CC3)cn2c1N(CC)c1nc(-c2ccc(F)cc2)c(C#N)s1` (centres unmarked) [Embodiment 13, 2-(4-(5-((5-cyano-4-(4-fluorophenyl)thiazol-2-yl)(ethyl)amino)-6-ethylimidazo[2,1-b]thiazol-2-yl)piperidin-1-yl)-N-(1-hydroxypropan-2-yl)acetamide], with 6.30 to 7.00; and `CCc1nc2sc(C3CCN(CC(=O)NC(C)(C)CO)CC3)cn2c1N(CC)c1nc(-c2ccc(F)cc2)c(C#N)s1` [Embodiment 14, 2-(4-(5-((5-cyano-4-(4-fluorophenyl)thiazol-2-yl)(ethyl)amino)-6-ethylimidazo[2,1-b]thiazol-2-yl)piperidin-1-yl)-N-(1-hydroxy-2-methylpropan-2-yl)acetamide], with 7.00 to 11.00.
`CCc1nc2sc(C3CCN(CC(=O)NCC4(O)CC4)CC3)cn2c1N(CC)c1nc(-c2ccc(F)cc2)c(C#N)s1` [Embodiment 15, 2-(4-(5-((5-cyano-4-(4-fluorophenyl)thiazol-2-yl)(ethyl)amino)-6-ethylimidazo[2,1-b]thiazol-2-yl)piperidin-1-yl)-N-((1-hydroxycyclopropyl)methyl)acetamide] gave a negative-log IC50 (pIC50) of 6.30 to 7.00.
As for `CCc1nc2sc(C3CCN(CC(=O)NCC4(O)CCC4)CC3)cn2c1N(CC)c1nc(-c2ccc(F)cc2)c(C#N)s1` [Embodiment 16, 2-(4-(5-((5-cyano-4-(4-fluorophenyl)thiazol-2-yl)(ethyl)amino)-6-ethylimidazo[2,1-b]thiazol-2-yl)piperidin-1-yl)-N-((1-hydroxycyclobutyl)methyl) acetamide], the pIC50 is 7.00 to 11.00.
In turn, `CCc1nc2sc(C3CCN(CC(=O)NC4CC(F)(F)C4)CC3)cn2c1N(CC)c1nc(-c2ccc(F)cc2)c(C#N)s1` [Embodiment 17, 2-(4-(5-((5-cyano-4-(4-fluorophenyl)thiazol-2-yl)(ethyl)amino)-6-ethylimidazo[2,1-b]thiazol-2-yl)piperidin-1-yl)-N-(3,3-difluorocyclobutyl)acetamide] had a pIC50 of 6.30 to 7.00.
Then `CCc1nc2sc(C3CCN(CC(=O)NCC4CC4)CC3)cn2c1N(CC)c1nc(-c2ccc(F)cc2)c(C#N)s1` [Embodiment 18, 2-(4-(5-((5-cyano-4-(4-fluorophenyl)thiazol-2-yl)(ethyl)amino)-6-ethylimidazo[2,1-b]thiazol-2-yl)piperidin-1-yl)-N-(cyclopropylmethyl)acetamide], with 6.30 to 7.00.
The compound `CCc1nc2sc(C3CCN(CC(=O)NCC4CCC4)CC3)cn2c1N(CC)c1nc(-c2ccc(F)cc2)c(C#N)s1` [Embodiment 19, 2-(4-(5-((5-cyano-4-(4-fluorophenyl)thiazol-2-yl)(ethyl)amino)-6-ethylimidazo[2,1-b]thiazol-2-yl)piperidin-1-yl)-N-(cyclobutylmethyl)acetamide] had a pIC50 of 7.00 to 11.00.
The same measure for `CCc1nc2sc(C3CCN(CC(=O)NC4CCOCC4)CC3)cn2c1N(c1nc(-c2ccc(F)cc2)c(C#N)s1)C(C)C` [Embodiment 26, 2-(4-(5-((5-cyano-4-(4-fluorophenyl)thiazol-2-yl)(isopropyl)amino)-6-ethylimidazo[2,1-b]thiazol-2-yl)piperidin-1-yl)-N-(tetrahydro-2H-pyran-4-yl)acetamide]: 7.00 to 11.00; for `CCc1nc2sc(C3CCN(CC(=O)NC4COC4)CC3)cn2c1N(c1nc(-c2ccc(F)cc2)c(C#N)s1)C(C)C` [Embodiment 27, 2-(4-(5-((5-cyano-4-(4-fluorophenyl)thiazol-2-yl)(isopropyl)amino)-6-ethylimidazo[2,1-b]thiazol-2-yl)piperidin-1-yl)-N-(oxacyclobut-3-yl)acetamide]: 7.00 to 11.00.
